The test system of assay [1] is NRAMP2. The assay is described as follows: Intestinal NRAMP2 mRNA in rats of ACD Series 2 (microarray). The class given is in vivo, rat. How it is done:
At week 6 following administration of compound A in anemic animals (40 mg/kg, twice a week), microarray analysis was performed to examine expression of genes encoding proteins involved with iron transport and absorption in intestine. Microarray analysis was performed using methods described above, using The Rat Genome 230A array (Affymetirx), which represents all sequence in the Rat Unigene database build 99 (National Center for Biotechnology Information, Bethesda, Md.), including approximately 4,699 well-characterized rat genes and approximately 10,467 EST sequences and approximately 700 non-EST sequences.

Assay [2] relates to rat model of ACD. Put plainly: Rat model of ACD (PG-PS), Experimental Series 2. It counts as in vivo. How it is done:
Female Lewis rats (approximately 150-200 gm) were injected with PG-PS (intra-peritoneal). Arthritis and anemia were allowed to develop for 28 days. Animals were administered compound A by oral gavage twice a week (Monday and Thursday) for six weeks, corresponding to days 28, 31, 35, 38, 42, 45, 49, 52, 56, 59, 63, 66, and 70 from PG-PS injection.
Whole blood was collected via the tail vein for CBC analysis on days 28, 42, 56, and 70. In addition, serum was collected on day 70 for iron binding analysis. CBC and iron binding analysis were performed by Quality Clinical Labs (Mountain View, Calif.).
Patients with anemia of chronic disease are clinically characterized by reduced plasma iron concentrations and transferrin saturation. The effect of the present compounds on serum iron and transferrin saturation in normal and anemic animals was determined. Using an animal model of anemia of chronic disease, anemia was induced in rats by IP injection of peptidoglycan-polysaccharide polymers, as described above. Arthritis and anemia were allowed to develop for 28 days. Animals were then treated with various concentrations of compound A, twice weekly, for 6 weeks. Serum iron levels and transferrin saturation were determined by Quality Clinical Labs.

In assay [3] the test system is Ceruloplasmin (CP). Put plainly: Microarray gene expression in Hep3B cells: ceruloplasmin. To be noted: 2 μM. The class given is cell-based, human. How it is done: Hep3B cells (ATCC No. HB-8064) were grown in DMEM containing 8% fetal bovine serum. Hep3B cells were seeded into 6-well culture dishes at ˜500,000 cells per well. After 8 hours, the media was changed to DMEM containing 0.5% fetal bovine serum and the cells were incubated for an additional 16 hours. Compound B or compound D was added to the cells (2 μM final concentration) and the cells were incubated for various times. Control cells (no compound treatment, addition of DMSO alone) were harvested at 0, 6 and 48 hours. Harvested cells were assessed for cell viability (GUAVA), or added to RNA extraction buffer (RNeasy, Qiagen) and stored at −20° C. for subsequent RNA purification. Replicate microarrays were generated using RNA isolated from replicate experiments conducted on different days. Total RNA was isolated from cells using the RNeasy kit (Qiagen).
RNA was precipitated in 0.3 M sodium acetate (pH 5.2), 50 ng/ml glycogen, and 2.5 volumes of ethanol for one hour at −20° C. Samples were centrifuged and pellets were washed with cold 80% ethanol, dried, and resuspend in water. Double stranded cDNA was synthesized using a T7-(dT)24 first strand primer (Affymetrix, Inc., Santa Clara Calif.) and the SUPERSCRIPT CHOICE system (Invitrogen) according to the manufacturer's instructions. The final cDNA was extracted with an equal volume of 25:24:1 phenol:chloroform:isoamyl alcohol using a PHASE LOCK GEL insert (Brinkman, Inc., Westbury N.Y.). The aqueous phase was collected and cDNA was precipitated using 0.5 volumes of 7.5 M ammonium acetate and 2.5 volumes of ethanol. Alternatively, cDNA was purified using the GENECHIP sample cleanup module (Affymetrix) according to the manufacturer's instructions.
Biotin-labeled cRNA was synthesized from the cDNA in an in vitro […] (IVT) reaction using a BIOARRAY HighYield RNA transcript labeling kit (Enzo Diagnostics, Inc., Farmingdale N.Y.) according to the manufacturer's instructions. Final labeled product was purified and fragmented using the GENECHIP sample cleanup module (Affymetrix) according to the manufacturer's instructions.
Hybridization cocktail was prepared by bringing […] probe to […] in 1× hybridization buffer (100 mM MES, 1 M [Na^+], 20 mM EDTA, 0.01% Tween 20), 100 µg/ml herring sperm DNA, 500 µg/ml acetylated BSA, 0.03 nM contol oligo B2 (Affymetrix), and 1×GENECHIP eukaryotic hybridization control (Affymetrix). The cocktail was sequentially incubated at 99° C. for 5 minutes and 45° C. for 5 minutes, and then centrifuged for 5 minutes. The Human Genome U133A array (Affymetrix) was brought to room temperature and then prehybridized with 1× hybridization buffer at 45° C. for 10 minutes with rotation. The buffer was then replaced with […] hybridization cocktail and the array was hybridized for 16 hours at 45° C. at 60 rpm with counter balance. Following hybridization, arrays were washed once with 6×SSPE, 0.1% Tween 20, and then washed and stained using R-phycoerythrin-conjugated streptavidin (Molecular Probes, Eugene Oreg.), goat anti-streptavidin antibody (Vector Laboratories, Burlingame Calif.), and a GENECHIP Fluidics Station 400 instrument (Affymetrix) according to the manufacturer's micro_1v1 protocol (Affymetrix). Arrays were analyzed using a GENEARRAY scanner (Affymetrix) and Microarray Suite software (Affymetrix).
The Human Genome U133A array (Affymetrix) represents all sequences in the Human Unigene database build 133 (National Center for Biotechnology Information, Bethesda Md.), including approximately 14,500 well-characterized human genes.
RNA quality was monitored by capillary electrophoresis (Agilent Bioanalyzer). Hybridization cocktails were prepared as described (Affymetrix), and hybridized to Affymetrix human U133A arrays containing 22,283 probe sets. Array performance was analyzed with Affymetrix MicroArray Suite (MAS) software and individual probe sets were assigned “present”, “marginal, and “absent” calls according to software defaults. […]

The mark [4] stands for this setting: anemic rats, twice a week for six weeks.

Turning to `O=C(O)CNC(=O)c1nc(Cl)c2ccccc2c1O` [Compound A, [(1-Chloro-4-hydroxy-isoquinoline-3-carbonyl)-amino]-acetic acid], in assay [1] (anemic rats, 40 mg/kg twice a week, week 6), the “intestinal expression of NRAMP2” value was “increased expression of both NRAMP2 and sproutin in intestine”. The “intestinal expression of mRNA for NRAMP2” value in assay [1] (control rats) was “increased intestinal expression of mRNA for NRAMP2”. Also, the serum iron levels entry in assay [2] (anemic (PG-PS) and non-anemic control (sham) rats, twice weekly, 6 weeks) is given as “increased serum iron levels”. Moreover, the hemoglobin levels entry in assay [2] (anemic rats, 10 mg/kg, 20 mg/kg or 40 mg/kg twice weekly) is given as “hemoglobin levels increased”; in assay [2] (non-anemic rats, 40 mg/kg twice a week), “approximately 110 % of that in non-treated control animals”. Moreover, the “red blood cell counts” value in assay [2] (anemic rats, from 2 weeks, over the 6 week period) is on record as “red blood cell counts were increased”. Also, the hematocrit levels result in assay [2] (anemic rats, oral gavage twice a week) is reported as “increased hematocrit levels”; in assay [2] (non-challenged (non-anemic) rats, 40 mg/kg twice a week), “greater than 110 % of that in non-challenged non-treated animals”. In assay [2] (setting [4]), the “mean corpuscular hemoglobin levels” value was “reduction in the decrease in mean corpuscular hemoglobin levels”. Besides, the mean corpuscular volume entry in assay [2] (setting [4]) is listed as “reduction of the decrease in mean corpuscular volume”. Besides, the transferrin saturation entry in assay [2] (vs non-treated non-anemic and non-treated anemic rats, twice weekly, 6 weeks) is recorded as “increased transferrin saturation”.
As to `O=C(O)CNC(=O)c1ncc2cc(Oc3ccccc3)ccc2c1O` [Compound B, [(4-Hydroxy-7-phenoxy-isoquinoline-3-carbonyl)-amino]-acetic acid], the “Ceruloplasmin (CP) fold-increase in mRNA levels above control, first data point” value in assay [3] (1 hr) came out at 1.142 fold; in assay [3] (3 hr), 1.123 fold; in assay [3] (6 hr), 1.555 fold; in assay [3] (12 hr), 2.366 fold; in assay [3] (24 hr), 5.136 fold; in assay [3] (48 hr), 5.82 fold. Also, the “Ceruloplasmin (CP) fold-increase in mRNA levels above control, second data point” value in assay [3] (1 hr) stood at 0.946 fold; in assay [3] (3 hr) it was 0.955 fold; in assay [3] (6 hr), 1.103 fold; in assay [3] (12 hr), 2.507 fold; in assay [3] (24 hr) it was 4.909 fold; in assay [3] (48 hr), 4.678 fold.

For the origin of these results see patent publication US11680047B2, “Enhanced erythropoiesis and iron metabolism” (FibroGen, Inc., priority 2003, dated 2023).
